# Values quoted from earlier work, collected in PMC4546577 (ACS chemical biology, 2015).
# Details: sulphydryl group in MeaF; ref [69] PerrinDD, Dissociation constants of organic bases in aqueous solution, 1965
structure (smiles),measurement,value
"N[C@@H](Cc1cccc(NCCS)c1)C(=O)O [MeaF, 3-(2-mercapto-ethyl)amino-phenylalanine]",pKa (sulphydryl group),~ 8.5
